Source: US4478834A, “Dihydropyridines and their use in the treatment of asthma” (USV Pharmaceutical Corporation, priority 1983, dated 1984)

Legend:
[1] = tested on: Cyclic Nucleotide Phosphodiesterase (cNUC-PDE); test: Cyclic Nucleotide Phosphodiesterase (cNUC-PDE) Assay; format: biochemical; conditions: compounds initially tested at 100 μM; enzyme source (dog heart or rat mast cell) not given
Description: Cyclic Nucleotide Phosphodiesterase (cNUC-PDE) Assay: CNUC-PDE was measured by a modification of the one-step procedure described by Thompson et al. (1979). The reaction was carried out in 7 ml scintillation vials. The reaction mixture consisted of 5 mM MgCl2., 50 mM tris-(hydroxymethyl)aminomethane buffered to pH 8.0 at 37° C. with hydrochloric acid (Tris-chloride), 1-2×10^5 cpm ^3 H-labeled cyclic nucleotide substrate, appropriate concentration of non-labeled cyclic nucleotide, 25 μg/ml lyophilized Ophiophagus hannah venom and appropriate enzyme for linear reaction conditions. The timed reactions were initiated by the addition of an enzyme, incubated at 37° C. for appropriate times for linear reaction rates, and stopped with the addition of 0.8 ml of 50% (v/v) AG 1×8 (200-400 mesh) ion-exchange resin in 50% (v/v) ethanol-Tris-acetate buffer (pH 8.0). The vials were vortexed and the resin mixture allowed to equilibrate for 15 min at 4° C. Scintillation fluid (4.5 ml) was added and radioactivity quantitated in a liquid scintillation counter.
Dog Heart Enzyme Preparations: Mongrel dogs were overdosed with Nembutal® and their hearts surgically removed. […]
Mast Cell Enzyme Preparations: Peritoneal cells were collected and mast cells purified by a procedure similar to that described by Yurt et al., (1977). […] The cells ([…]) were counted with a haemocytometer. […]

guinea pig lung = guinea pig lung inhibition
Description: The activity of a compound is expressed as % inhibition of net antigen-induced histamine release. In the case of an active compound the concentration of the compound required for 50% inhibition for AIR (I50) is determined.

[2] = Blood pressure in spontaneously hypertensive [SHR] rats; format: in vivo, rat; conditions: intraperitoneal (ip) dose of 100 mg/Kg, over 2 hours duration
Description: In spontaneously hypertensive [SHR] rats (as described in Laffan, R. J., Patterson, A., Hitch, S. W., Jeunelot, Technique for Prolonged Continuous Recording of Blood Pressures of Unrestricted Rats, Cardiovascular Research, Vol. 6, pp. 319-24, 1972),3,10b-dihydro-2,4-dimethyl-5-oxo-5H[1]benzopyrano[3,4-C]pyridine-1-carboxylic acid ethyl ester (Example 4D) administered intraperitoneal (ip) dose of 100 mg/Kg reduced blood pressure by 17-22% over 2 hours duration.

## CCOC(=O)C1=C(C)NC(C)=C2C(=O)Nc3ccccc3C21 (stereo not drawn) [Example 3C, 3,5,6,10b-Tetrahydro-2,4-dimethyl-5-oxo-benzo[c][2,7]naphthyridine-1-carboxylic acid ethyl ester]
[1]
  PDE inhibition: < 60%
Guinea pig lung
  guinea pig lung inhibition: < 50%

## CCOC(=O)C1=C(C)NC(C)=C2C(=O)Oc3ccccc3C12 (stereo not drawn) [Example 4D, 3,10b-Dihydro-2,4-dimethyl-5-oxo-5H[1]benzo-pyrano[3,4-c]pyridine-1-carboxylic acid ethyl ester]
[2]
  reduced blood pressure: 17-22%
